Consider two molecules from patent US5206435A, “4-amino-2-cyclopentene-1-methanol” (priority 1988, dated 1993).

As usually defined, the IC50 is the concentration that gives 50% inhibition. A higher IC50 goes with weaker potency in that assay.

“Also recorded” adds a separate entry of the source.

Series [1] in a line: penetration of the blood-brain barrier upon administration. Type of series: in vivo.
Series [2] concerns HBV. Put plainly: activity against HBV infections (general statement). More on the design: species or system hepatitis B virus.
For series [3], the system named is HIV. Put plainly: activity against HIV infections (general statement).
The test system of series [4] is bone marrow progenitor cells. Put plainly: toxicity against bone marrow progenitor cells. In kind it is cell-based. The settings on record: compared with 3'-azido-3'-deoxythymidine (zidovudine).
Series [5] relates to HIV. Put plainly: anti-HIV activity in MT4 cells. In kind it is cell-based. Conditions: Human immunodeficiency virus 1, average of 10 determinations. The method, then: (1S,4R)-cis-4-[2-amino-6-(cyclopropylamino)-9H-purin-9-yl]-2-cyclopentene-1-methanol was tested for anti-HIV activity in MT4 cells according to the method described by Averett, D. R., J. Virol.
The test system of series [6] is HBV. Put plainly: anti-HBV activity in the human HBV producer cell line of HepG2, 2.2.15. Type of series: cell-based, hepatitis B virus. Conditions: at 100 μM; HepG2, 2.2.15 cells. As to the method:
The human HBV producer cell line of HepG2,2.2.15, described and characterised by Sells et al., PNAS 84: 1005, 1987 and J.Virol.
To test compounds for anti-HBV activity, monolayer cultures were treated with the test compound: 50-200 μM for ten days. Supernatant media containing extracellular virion DNA (Dane particles) were harvested on days three, six and ten, treated with proteinase K (1 mg/mL) and sodium dodecyl sulfate (1%), and incubated at 50° C. for one hour. DNA was extracted with equal volumes of phenol followed by chloroform and then precipitated by ammonium acetate and propanol. The DNA precipitate was dissolved and collected on nitrocellulose using the procedure of Schleicher and Schuell (S&S, 10 Optical Ave., Keene, N.H. 03431, Publication #700, 1987), and treated as described by Southern, J.Mol.Biol., 98, 503, 1975. […] After precipitation by ammonium acetate and propanol, the intracellular DNA precipitate was dissolved, cut by restriction endonuclease, Hind III, applied to agarose gel and then treated as described by Southern to determine the quantity of replicative intermediate forms. The antiviral effect of the drug was determined by measuring at least a 100-fold reduction of the amount of Dane particles extruded into the culture medium and a similar decrease in the intracellular replicative intermediates.

Regarding `Nc1nc(NC2CC2)c2ncn([C@H]3C=C[C@@H](CO)C3)c2n1` [Compound 1, (1S,4R)-cis-4-[2-amino-6-(cyclopropylamino)-9H-purin-9-yl]-2-cyclopentene-1-methanol], in series [1], the blood-brain barrier penetration result is recorded as “capable of penetrating the blood-brain barrier” and the “levels of the compounds or active metabolites in the central nervous system” value is on record as “high levels”. Besides, in series [2], the “activity against HBV infections” value was “especially potent activity; also recorded: exceptionally potent activity”. In addition, the “activity against HIV infections” value in series [3] is given as “especially potent activity; also recorded: exceptionally potent activity”. Besides, in series [4], the “toxicity against bone marrow progenitor cells” value is “significantly lower toxicity”. Moreover, in series [5], the IC50 is 4 ± 1.4 µM.
On to `CN(c1nc(N)nc2c1ncn2[C@H]1C=C[C@@H](CO)C1)C1CC1` [Compound 3, (1S,4R)-cis-4-[2-amino-6-(N-cyclopropyl-N-methylamino)-9H-purin-9-yl]-2-cyclopentene-1-methanol], for which, in series [1], the blood-brain barrier penetration entry was “capable of penetrating the blood-brain barrier” and the “levels of the compounds or active metabolites in the central nervous system” value is “high levels”. The anti-HBV activity entry in series [6] is on record as “potent anti-HBV activity”. Moreover, the “activity against HBV infections” value in series [2] was “especially potent activity”. In addition, in series [3], the “activity against HIV infections” value was “especially potent activity”.
